Assays:
[1] = tested on: MAOB; experiment: MAOB reporter assay; format: cell-based; details: active = >=60% inhibition and dose response
Procedure: (§1) Affy signatures yielded 60 materials that were plated and provided for evaluation in a MAOB enzyme inhibition assay and 46 pure material were tested in a MAOB reporter assay.

[2] = biological target: T1, MAOB (Homo sapiens, UniProt P27338); experiment: MAOB enzyme inhibition assay; format: biochemical; details: active = >=40% inhibition and dose response
T1 sequence (P27338 1-520): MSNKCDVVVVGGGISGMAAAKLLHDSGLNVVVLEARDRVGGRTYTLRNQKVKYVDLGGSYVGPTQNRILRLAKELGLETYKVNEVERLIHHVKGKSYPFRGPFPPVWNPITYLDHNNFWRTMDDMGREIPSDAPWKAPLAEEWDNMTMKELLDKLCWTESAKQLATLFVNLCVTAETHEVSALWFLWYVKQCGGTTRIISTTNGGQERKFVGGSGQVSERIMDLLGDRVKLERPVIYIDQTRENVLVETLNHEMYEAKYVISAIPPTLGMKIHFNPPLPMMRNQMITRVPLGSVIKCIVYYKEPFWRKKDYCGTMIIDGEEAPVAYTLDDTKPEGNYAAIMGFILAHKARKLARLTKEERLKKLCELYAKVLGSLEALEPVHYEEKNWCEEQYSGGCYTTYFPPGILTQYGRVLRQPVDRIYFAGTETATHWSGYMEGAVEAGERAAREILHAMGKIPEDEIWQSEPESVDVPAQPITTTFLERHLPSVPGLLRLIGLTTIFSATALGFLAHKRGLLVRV
Procedure: as §1

[3] = tested on: hair count; experiment: Clinical studies of hair count; format: in vivo

activity in MAOB enzyme inhibition assay [2]	Structure (SMILES)	activity in MAOB reporter assay [1]	hair count [3]
active and hit	CCN(CC)CCCC(C)Nc1c2ccc(Cl)cc2nc2ccc(OC)cc12 (stereo not drawn) [quinacrine]	active and hit	–
–	O=c1cc(-c2ccc(O)cc2)oc2cc(O)cc(O)c12 [Apigenin]	–	significant hair count benefit

From US9920357B2, “Systems and methods for identifying cosmetic agents for hair/scalp care compositions” (The Procter & Gamble Company, priority 2012, dated 2018)
